The nature of the series: Pharmacokinetic study in minipigs (i.v.). Particulars: male, Göttingen, minipig, in vivo, iv. As for the experimental part:
The derivatives of Examples 12, 14, and 15 were dosed 2 nmol/kg. The derivatives of Examples 1 and 2 were dosed 15 nmol/kg.

Where two headings read alike, the source gives them in different places. Non-standard residues stand in square brackets, D forms with d. Residues, ends and D or L forms follow the SMILES beside them. Groups on a side chain read outwards from the residue. *: point of attachment. X1 = O=C(O)CCCCCCCCCCCCCCCCCCC(=O)NC[C@H]1CC[C@H](C(=O)N[C@@H](CCC(=O)NCCOCCOCC(=O)NCCOCCOCC(=O)NCCCC[C@H](NC(=O)COCCOCCNC(=O)COCCOCCNC(=O)CC[C@H](NC(=O)[C@H]2CC[C@H](CNC(=O)CCCCCCCCCCCCCCCCCCC(=O)O)CC2)C(=O)O)C(=O)*)C(=O)O)CC1; Desaminohistidyl = O=C(CCc1c[nH]cn1)*; AEEA = NCCOCCOCC(=O)O; Aib = CC(C)(N)C(=O)O

Consider `CCCCCCCCCCCC(=O)NCCOCCOCC(=O)NCCCC[C@H](NC(=O)COCCOCCNC(=O)CCCCCCCCCCC)C(=O)NCCOCCOCC(=O)NCCCC[C@H](NC(=O)[C@H](CCCNC(=N)N)NC(=O)C(C)(C)NC(=O)[C@H](CCCCN)NC(=O)[C@@H](NC(=O)[C@H](CC(C)C)NC(=O)[C@H](Cc1c[nH]c2ccccc12)NC(=O)[C@H](C)NC(=O)[C@@H](NC(=O)[C@H](Cc1ccccc1)NC(=O)[C@H](CCC(=O)O)NC(=O)[C@H](CCCCN)NC(=O)[C@H](C)NC(=O)[C@H](C)NC(=O)[C@H](CCC(N)=O)NC(=O)C(C)(C)NC(=O)[C@H](CCC(=O)O)NC(=O)[C@H](CC(C)C)NC(=O)[C@H](Cc1ccc(O)cc1)NC(=O)[C@H](CO)NC(=O)[C@H](CO)NC(=O)[C@@H](NC(=O)[C@H](CC(=O)O)NC(=O)[C@H](CO)NC(=O)[C@@H](NC(=O)[C@H](Cc1ccccc1)NC(=O)[C@@H](NC(=O)CNC(=O)[C@H](CCC(=O)O)NC(=O)C(C)(C)NC(=O)[C@@H](N)Cc1c[nH]cn1)[C@@H](C)O)[C@@H](C)O)C(C)C)[C@@H](C)CC)C(C)C)C(N)=O` [Comparative Example 1, N{Epsilon-37}-[2-[2-[2-[[(2S)-2,6-bis[[2-[2-[2-(dodecanoylamino)ethoxy]ethoxy]acetyl]amino]hexanoyl]amino]ethoxy]ethoxy]acetyl]-[Aib8,Aib22,Aib35,Lys37]-GLP-1-(7-37)-peptide Amide, reference compound], for which the half-life is 0.125 days. As for `CCCCCCCCCCCCCC(=O)NCCOCCOCC(=O)NCCCC[C@H](NC(=O)COCCOCCNC(=O)CCCCCCCCCCCCC)C(=O)NCCOCCOCC(=O)NCCCC[C@H](NC(=O)[C@H](CCCNC(=N)N)NC(=O)C(C)(C)NC(=O)[C@H](CCCCN)NC(=O)[C@@H](NC(=O)[C@H](CC(C)C)NC(=O)[C@H](Cc1c[nH]c2ccccc12)NC(=O)[C@H](C)NC(=O)[C@@H](NC(=O)[C@H](Cc1ccccc1)NC(=O)[C@H](CCC(=O)O)NC(=O)[C@H](CCCCN)NC(=O)[C@H](C)NC(=O)[C@H](C)NC(=O)[C@H](CCC(N)=O)NC(=O)C(C)(C)NC(=O)[C@H](CCC(=O)O)NC(=O)[C@H](CC(C)C)NC(=O)[C@H](Cc1ccc(O)cc1)NC(=O)[C@H](CO)NC(=O)[C@H](CO)NC(=O)[C@@H](NC(=O)[C@H](CC(=O)O)NC(=O)[C@H](CO)NC(=O)[C@@H](NC(=O)[C@H](Cc1ccccc1)NC(=O)[C@@H](NC(=O)CNC(=O)[C@H](CCC(=O)O)NC(=O)C(C)(C)NC(=O)[C@@H](N)Cc1c[nH]cn1)[C@@H](C)O)[C@@H](C)O)C(C)C)[C@@H](C)CC)C(C)C)C(N)=O` [Comparative Example 2, N{Epsilon-37}-[2-[2-[2-[[(2S)-2,6-bis[[2-[2-[2-(tetradecanoylamino)ethoxy]ethoxy]acetyl]amino]hexanoyl]amino]ethoxy]ethoxy]acetyl]-[Aib8,Aib22,Aib35,Lys37]-GLP-1-(7-37)-peptide Amide, reference compound], the half-life was 0.125 days. As to `CC[C@H](C)[C@H](NC(=O)[C@H](Cc1ccccc1)NC(=O)[C@H](CCC(=O)O)NC(=O)[C@H](CCCNC(=N)N)NC(=O)[C@H](C)NC(=O)[C@H](C)NC(=O)[C@H](CCC(N)=O)NC(=O)[C@H](CCC(=O)O)NC(=O)[C@H](CCC(=O)O)NC(=O)[C@H](CC(C)C)NC(=O)[C@H](Cc1ccc(O)cc1)NC(=O)[C@H](CO)NC(=O)[C@H](CO)NC(=O)[C@@H](NC(=O)[C@H](CC(=O)O)NC(=O)[C@H](CO)NC(=O)[C@@H](NC(=O)[C@H](Cc1ccccc1)NC(=O)[C@@H](NC(=O)CNC(=O)[C@H](CCC(=O)O)NC(=O)C(C)(C)NC(=O)[C@@H](N)Cc1c[nH]cn1)[C@@H](C)O)[C@@H](C)O)C(C)C)C(=O)N[C@@H](C)C(=O)N[C@@H](Cc1c[nH]c2ccccc12)C(=O)N[C@@H](CC(C)C)C(=O)N[C@H](C(=O)N[C@@H](CCCNC(=N)N)C(=O)NCC(=O)N[C@@H](CCCNC(=N)N)C(=O)N[C@@H](CCCCNC(=O)COCCOCCNC(=O)COCCOCCNC(=O)[C@H](CCCCNC(=O)COCCOCCNC(=O)COCCOCCNC(=O)CC[C@H](NC(=O)[C@H]1CC[C@H](CNC(=O)CCCCCCCCCCCCCCCCCCC(=O)O)CC1)C(=O)O)NC(=O)COCCOCCNC(=O)COCCOCCNC(=O)CC[C@H](NC(=O)[C@H]1CC[C@H](CNC(=O)CCCCCCCCCCCCCCCCCCC(=O)O)CC1)C(=O)O)C(=O)O)C(C)C` [Example 2, N{Epsilon-37}-[2-[2-[2-[[2-[2-[2-[[(2S)-2,6-bis[[2-[2-[2-[[2-[2-[2-[[(4S)-4-carboxy-4-[[4-[(19-carboxynonadecanoylamino)methyl]cyclohexanecarbonyl]amino]butanoyl]amino]ethoxy]ethoxy]acetyl]amino]ethoxy]ethoxy]acetyl]amino]hexanoyl]amino]ethoxy]ethoxy]acetyl]amino]ethoxy]ethoxy]acetyl]-[Aib8,Glu22,Arg26,Arg34,Lys37]-GLP-1-(7-37)-peptide], the half-life (minipigs, i.v., 15 nmol/kg, harmonic mean, read-out: Terminal half-live (converted)) is 5.42 days. As for `CC[C@H](C)[C@H](NC(=O)[C@H](Cc1ccccc1)NC(=O)[C@H](CCC(=O)O)NC(=O)[C@H](CCCNC(=N)N)NC(=O)[C@H](C)NC(=O)[C@H](C)NC(=O)[C@H](CCC(N)=O)NC(=O)[C@H](CCC(=O)O)NC(=O)[C@H](CCC(=O)O)NC(=O)[C@H](CC(C)C)NC(=O)[C@H](Cc1ccc(O)cc1)NC(=O)[C@H](CO)NC(=O)[C@H](CO)NC(=O)[C@@H](NC(=O)[C@H](CC(=O)O)NC(=O)[C@H](CO)NC(=O)[C@@H](NC(=O)[C@H](Cc1ccccc1)NC(=O)[C@@H](NC(=O)CNC(=O)[C@H](CCC(=O)O)NC(=O)C(C)(C)NC(=O)CCc1cnc[nH]1)[C@@H](C)O)[C@@H](C)O)C(C)C)C(=O)N[C@@H](C)C(=O)N[C@@H](Cc1c[nH]c2ccccc12)C(=O)N[C@@H](CC(C)C)C(=O)N[C@H](C(=O)N[C@@H](CCCNC(=N)N)C(=O)NCC(=O)N[C@@H](CCCNC(=N)N)C(=O)NCC(=O)NCC(=O)N[C@@H](CCCCNC(=O)COCCOCCNC(=O)COCCOCCNC(=O)[C@H](CCCCNC(=O)COCCOCCNC(=O)COCCOCCNC(=O)CC[C@H](NC(=O)[C@H]1CC[C@H](CNC(=O)CCCCCCCCCCCCCCCCCCC(=O)O)CC1)C(=O)O)NC(=O)COCCOCCNC(=O)COCCOCCNC(=O)CC[C@H](NC(=O)[C@H]1CC[C@H](CNC(=O)CCCCCCCCCCCCCCCCCCC(=O)O)CC1)C(=O)O)C(=O)O)C(C)C` [Example 7, [Imp7,Aib8,Glu22,Arg26,Arg34]-GLP-1-(7-37)-peptidyl-Gly-N{Epsilon}[2-[2-[2-[[2-[2-[2-[[(2S)-2,6-bis[[2-[2-[2-[[2-[2-[2-[[(4S)-4-carboxy-4-[[4-[(19-carboxynonadecanoylamino)methyl]cyclohexanecarbonyl]amino]butanoyl]amino]ethoxy]ethoxy]acetyl]amino]ethoxy]ethoxy]acetyl]amino]hexanoyl]amino]ethoxy]ethoxy]acetyl]amino]ethoxy]ethoxy]acetyl]Lys] (Desaminohistidyl-[Aib]EGTFTSDVSSYLEEQAAREFIAWLVRGRGGK([AEEA-AEEA-X1])-OH; C-terminus assumed), the half-life (minipigs, i.v., 5 nmol/kg, harmonic mean, read-out: Terminal half-live (converted)) is 5.58 days.
